Reference: article PMC12076188 (Cancer Research Communications, 2025)
pIC50: −log10 of the molar value. Read-outs that look alike come from different tables or passages of the source.

Legend:
GDP-bound NRAS WT = biological target: T1, GDP-bound NRAS WT (Homo sapiens, UniProt P01111); assay: SOS1-mediated guanine nucleotide exchange assay (TR-FRET); type: biochemical
T1 construct: His-tagged NRAS WT (aa 1–172); made in house; host or cells: Escherichia coli

GppNp-bound NRAS WT = biological target: T2, GppNp-bound NRAS WT (Homo sapiens, UniProt P01111); assay: GppNp-loaded RAS and cRAF interaction assay (HTRF); type: biochemical
T2 construct: His-tagged NRAS WT (aa 1–172); made in house; host or cells: Escherichia coli

[1] = test system: NCI-H1373 lung cancer xenograft; assay: Cell line–derived xenograft study; type: in vivo, BALB/c-nu mice; details: NCI-H1373 lung cancer xenograft model; single agents or combination, orally once a day
Excerpt: Female BALB/c nude mice (CAnN.Cg-Foxn1^nu/Crl, RRID: IMSR_CRL:194) were obtained from Beijing Vital River Laboratory Animal Technology Co., Ltd. Female BALB/c-nu mice (BALB/cAnSlacNifdc-nu) were obtained from SPF (Beijing) Biotechnology Co., Ltd. Female NCG mice (NOD/ShiLtJGpt-Prkdc^em26Cd52Il2rg^em26Cd22/Gpt) were obtained from GemPharmatech. Subcutaneous tumors were induced by injecting cells in PBS containing 50% BD Matrigel (Corning) in the right flank of female BALB/c-nu mice (NCI-H1373, 5 × 10^6 cells), female BALB/c nude mice (MIA PaCa-2, 1 × 10^7 cells), or female NCG mice (NCI-H358, 5 × 10^6 cells).

GDP-bound HRAS WT = biological target: T3, GDP-bound HRAS WT (Homo sapiens, UniProt P01112); assay: SOS1-mediated guanine nucleotide exchange assay (TR-FRET); type: biochemical; details: GDP-bound HRAS WT; compound pre-incubation 25°C, 60 min; read-out: IC50
T3 construct: His-tagged HRAS WT (aa 1–166); made in house; host or cells: Escherichia coli

[2] = test system: CR6256 PDX tumors rebounding after sotorasib treatment; assay: PDX study on tumors regrown under sotorasib; type: in vivo, mice; details: after 63 days of 100 mg/kg sotorasib; then 100 mg/kg sotorasib, 100 mg/kg glecirasib, 50 mg/kg cetuximab or combination
[3] = test system: Ba/F3 cells carrying HRAS p.G12C; assay: Ba/F3-engineered cell line viability; type: cell-based; details: Mus musculus, BaF3, 144 h; Ba/F3 HRAS p.G12C; 6 days of treatment; read-out: Cell viability IC50
Protocol: (§1) The inhibitory activity of compounds on Ba/F3-engineered cell line viability was tested by Kyinno Biotechnology. Other cell viability assays on human cancer cell lines were conducted in-house. Cells were seeded in 96-well plates and incubated overnight, followed by treatment with various concentrations of compounds or solvent control for 6 days. Cell viability was detected using either the CellTiter-Glo (CTG) luminescent cell viability assay or the CTG 3D cell viability assay (Promega) for 2D and 3D CTG assays, respectively. […] The cell density is indicated in Supplementary Table S3.

[4] = test system: Ba/F3 cells carrying NRAS p.G12C; assay: Ba/F3-engineered cell line viability; type: cell-based; details: Mus musculus, BaF3, 144 h; Ba/F3 NRAS p.G12C; 6 days of treatment; read-out: Cell viability IC50
Protocol: as §1

GppNp-bound HRAS WT = biological target: T4, GppNp-bound HRAS WT (Homo sapiens, UniProt P01112); assay: GppNp-loaded RAS and cRAF interaction assay (HTRF); type: biochemical; details: GppNp-bound HRAS WT and cRAF RBD interaction; read-out: IC50
T4 construct: His-tagged HRAS WT (aa 1–166); made in house; host or cells: Escherichia coli
T4 sequence (P01112 1-166): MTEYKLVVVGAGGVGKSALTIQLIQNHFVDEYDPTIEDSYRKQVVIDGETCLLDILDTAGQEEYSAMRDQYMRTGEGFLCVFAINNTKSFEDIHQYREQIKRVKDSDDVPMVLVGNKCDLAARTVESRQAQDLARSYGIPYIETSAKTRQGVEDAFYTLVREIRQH

T2 sequence (P01111 1-172): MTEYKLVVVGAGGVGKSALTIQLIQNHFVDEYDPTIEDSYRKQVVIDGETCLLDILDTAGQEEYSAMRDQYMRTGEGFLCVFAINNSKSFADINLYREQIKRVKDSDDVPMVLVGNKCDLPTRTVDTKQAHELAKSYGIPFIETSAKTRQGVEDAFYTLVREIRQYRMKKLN
T1 sequence (P01111 1-172): as above
T3 sequence (P01112 1-166): as the sequence (P01112 1-166) above

C=C(F)C(=O)N1CCN(c2nc(OC[C@@H]3CCCN3C)nc3c2CCN(c2cccc4cccc(Cl)c24)C3)C[C@@H]1CC#N [Adagrasib]
pIC50 (GDP-bound NRAS WT): < 5.00 | pIC50 (GppNp-bound NRAS WT): < 5.00

Nc1nccc(Sc2cnc(N3CCC4(CC3)Cc3ncccc3[C@H]4N)cn2)c1Cl [JAB-3312]
TGI [1]: 64%

C=CC(=O)N1CCN(c2nc(=O)n(-c3c(C)ccnc3C(C)C)c3nc(-c4c(O)cccc4F)c(F)cc23)[C@@H](C)C1 [Sotorasib, reference compound]
pIC50 (GDP-bound HRAS WT): < 5.00 | tumor response of rebound tumors [2]: continued to grow | pIC50 [3]: 7.57 | pIC50 [4]: 7.83 | pIC50 (GDP-bound NRAS WT; GDP-bound NRAS WT, compound pre-incubation 25°C, 60 min, read-out: IC50): < 5.00 | pIC50 (GppNp-bound NRAS WT; GppNp-bound NRAS WT and cRAF RBD interaction, read-out: IC50): < 5.00 | pIC50 (GppNp-bound HRAS WT): < 5.00
